Laboratory results as given in PubChem BioAssay (NCI).
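1) Cells in 96-well plates. 2) Compound, 48 h, 5 concentrations. 3) Linear interpolation between surrounding doses. 4) Unreached endpoint = highest concentration. Here, GI50 denotes the concentration required for 50% inhibition of growth. TGI marks complete inhibition of growth.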

Legend:
Experiment in all cases: growth of human tumour cells (NCI), 48 h
ACHN renal = system: ACHN renal
RPMI-8226 leukemia = system: RPMI-8226 leukemia
SK-MEL-5 melanoma = system: SK-MEL-5 melanoma
NCI-H460 lung = system: NCI-H460 lung
SNB-19 CNS = system: SNB-19 CNS
KM12 colon = system: KM12 colon
LOX IMVI melanoma = system: LOX IMVI melanoma
PC-3 prostate = system: PC-3 prostate
SK-OV-3 ovarian = system: SK-OV-3 ovarian
MALME-3M melanoma = system: MALME-3M melanoma
COLO 205 colon = system: COLO 205 colon
A498 renal = system: A498 renal
MCF7 breast = system: MCF7 breast
NCI-H522 lung = system: NCI-H522 lung
HCC-2998 colon = system: HCC-2998 colon
SK-MEL-28 melanoma = system: SK-MEL-28 melanoma
SNB-75 CNS = system: SNB-75 CNS
HOP-92 NSCLC = system: HOP-92 NSCLC
UACC-257 melanoma = system: UACC-257 melanoma
SN12C renal = system: SN12C renal
HT29 colon = system: HT29 colon
TK-10 renal = system: TK-10 renal
EKVX NSCLC = system: EKVX NSCLC
SF-295 CNS = system: SF-295 CNS
OVCAR-3 ovarian = system: OVCAR-3 ovarian
OVCAR-8 ovarian = system: OVCAR-8 ovarian
IGROV1 ovarian = system: IGROV1 ovarian
RXF 393 renal = system: RXF 393 renal
BT-549 breast = system: BT-549 breast
HCT-116 colon = system: HCT-116 colon
HOP-62 NSCLC = system: HOP-62 NSCLC
CCRF-CEM leukemia = system: CCRF-CEM leukemia
U251 CNS = system: U251 CNS
NCI/ADR-RES ovarian = system: NCI/ADR-RES ovarian
MDA-MB-231 breast = system: MDA-MB-231 breast
NCI-H226 lung = system: NCI-H226 lung
UACC-62 melanoma = system: UACC-62 melanoma
NCI-H23 lung = system: NCI-H23 lung
MDA-MB-435 = system: MDA-MB-435
SF-539 CNS = system: SF-539 CNS
M14 melanoma = system: M14 melanoma
SK-MEL-2 melanoma = system: SK-MEL-2 melanoma
HS 578T breast = system: HS 578T breast
HCT-15 colon = system: HCT-15 colon
K-562 leukemia = system: K-562 leukemia
UO-31 renal = system: UO-31 renal
OVCAR-5 ovarian = system: OVCAR-5 ovarian
HL-60(TB) leukemia = system: HL-60(TB) leukemia
A549 NSCLC = system: A549 NSCLC
SF-268 CNS = system: SF-268 CNS
OVCAR-4 ovarian = system: OVCAR-4 ovarian
DU-145 prostate = system: DU-145 prostate
SW-620 colon = system: SW-620 colon
786-0 renal = system: 786-0 renal
SR leukemia = system: SR leukemia
MOLT-4 leukemia = system: MOLT-4 leukemia
CAKI-1 renal = system: CAKI-1 renal
T-47D breast = system: T-47D breast

## CN(C)CCNc1ccc2ncc(C#Cc3cncc(C(=O)Nc4ccc(CN5CCN(C)CC5)c(C(F)(F)F)c4)c3)n2n1
ACHN renal
  GI50: 1770 nM
  TGI: 6580 nM
RPMI-8226 leukemia
  GI50: 1150 nM
  TGI: 2900 nM
SK-MEL-5 melanoma
  GI50: 6000 nM
  TGI: 12500 nM
NCI-H460 lung
  GI50: 406 nM
  TGI: 1180 nM
SNB-19 CNS
  GI50: 950 nM
  TGI: 4010 nM
KM12 colon
  GI50: 76.5 nM
  TGI: 918 nM
LOX IMVI melanoma
  GI50: 548 nM
  TGI: 1200 nM
PC-3 prostate
  GI50: 664 nM
  TGI: 3470 nM
SK-OV-3 ovarian
  GI50: 2690 nM
  TGI: 9930 nM
MALME-3M melanoma
  GI50: 672 nM
  TGI: 1620 nM
COLO 205 colon
  GI50: 169 nM
  TGI: 541 nM
A498 renal
  GI50: 3100 nM
  TGI: 9700 nM
MCF7 breast
  GI50: 154 nM
  TGI: 1030 nM
NCI-H522 lung
  GI50: 652 nM
  TGI: 1440 nM
HCC-2998 colon
  GI50: 953 nM
  TGI: 2650 nM
SK-MEL-28 melanoma
  GI50: 5740 nM
  TGI: 12000 nM
SNB-75 CNS
  GI50: 185 nM
  TGI: 982 nM
HOP-92 NSCLC
  GI50: 181 nM
  TGI: 1850 nM
UACC-257 melanoma
  GI50: 4290 nM
  TGI: 11100 nM
SN12C renal
  GI50: 774 nM
  TGI: 2770 nM
HT29 colon
  GI50: 477 nM
  TGI: 1950 nM
TK-10 renal
  GI50: 1470 nM
  TGI: 4360 nM
EKVX NSCLC
  GI50: 1530 nM
  TGI: 5540 nM
SF-295 CNS
  GI50: 1150 nM
  TGI: 7230 nM
OVCAR-3 ovarian
  GI50: 844 nM
  TGI: 2950 nM
OVCAR-8 ovarian
  GI50: 672 nM
  TGI: 2840 nM
IGROV1 ovarian
  GI50: 955 nM
  TGI: 3980 nM
RXF 393 renal
  GI50: 683 nM
  TGI: 1410 nM
BT-549 breast
  GI50: 987 nM
  TGI: 1950 nM
HCT-116 colon
  GI50: 247 nM
  TGI: 1500 nM
HOP-62 NSCLC
  GI50: 564 nM
  TGI: 2130 nM
CCRF-CEM leukemia
  GI50: 28.4 nM
  TGI: 5170 nM
U251 CNS
  GI50: 734 nM
  TGI: 1890 nM
NCI/ADR-RES ovarian
  GI50: 9960 nM
  TGI: 47700 nM
MDA-MB-231 breast
  GI50: 463 nM
  TGI: 1900 nM
NCI-H226 lung
  GI50: 483 nM
  TGI: 3050 nM
UACC-62 melanoma
  GI50: 1770 nM
  TGI: 7870 nM
NCI-H23 lung
  GI50: 764 nM
  TGI: 1830 nM
MDA-MB-435
  GI50: 746 nM
  TGI: 4510 nM
SF-539 CNS
  GI50: 205 nM
  TGI: 862 nM
M14 melanoma
  GI50: 1010 nM
  TGI: 3430 nM
SK-MEL-2 melanoma
  GI50: 1110 nM
  TGI: 3050 nM
HS 578T breast
  GI50: 450 nM
  TGI: 1920 nM
HCT-15 colon
  GI50: 1570 nM
  TGI: 6000 nM
K-562 leukemia
  GI50: 130 nM
  TGI: 2420 nM
UO-31 renal
  GI50: 1870 nM
  TGI: 8040 nM
OVCAR-5 ovarian
  GI50: 1330 nM
  TGI: 5380 nM
HL-60(TB) leukemia
  GI50: 612 nM
  TGI: 1810 nM
A549 NSCLC
  GI50: 936 nM
  TGI: 5460 nM
SF-268 CNS
  GI50: 644 nM
  TGI: 1470 nM
OVCAR-4 ovarian
  GI50: 743 nM
  TGI: 2390 nM
DU-145 prostate
  GI50: 1000 nM
  TGI: 4180 nM
SW-620 colon
  GI50: 589 nM
  TGI: 2240 nM
786-0 renal
  GI50: 1040 nM
  TGI: 2460 nM
SR leukemia
  GI50: 60.1 nM
  TGI: 1620 nM
MOLT-4 leukemia
  GI50: 226 nM
  TGI: 3420 nM
CAKI-1 renal
  GI50: 713 nM
  TGI: 3660 nM
T-47D breast
  GI50: 1810 nM
  TGI: 9350 nM
